In brackets after ≈: the same amount, converted by molar mass.
Columns and labels:
Plasmodium falciparum = assay: Antiplasmodial activity against Plasmodium falciparum 3D7 by Giemsa staining; format: functional, organism-based
P388 = assay: Cytotoxicity against mouse P388 cells by MTT assay; format: cell-based

Row | IC50 (Plasmodium falciparum) [µg/mL] | Structure (SMILES) | IC50 (P388) [µg/mL]
1 | 44.2 (≈ 100 µM) | CC(=O)O[C@@H]1[C@H]2[C@@H](O)C=CC(=O)[C@]2(C)[C@H]2CC[C@]3(C)C(=CC[C@H]3c3ccoc3)[C@]2(C)[C@@H]1O [CERAMICINES A] | –
2 | 2.38 (≈ 4.83 µM) | C=C(C)C(=O)O[C@H]1C[C@H]2[C@](C)(C3=CC[C@@H](c4ccoc4)[C@@]31C)[C@H](O)[C@@H]1OC[C@]3(C)C=CC(=O)[C@@]2(C)[C@@H]13 [CERAMICINES C] | 5.5 (≈ 11.2 µM)
3 | 2.15 (≈ 5.06 µM) | C[C@]12C3=CC[C@@H](C4=CCOC4=O)[C@]3(C)CC[C@@H]1[C@@]1(C)C(=O)C=C[C@@]3(C)CO[C@@H]([C@H]2O)[C@H]13 [CERAMICINES D] | 27 (≈ 63.6 µM)

Row | Structure (SMILES) | IC50 (Plasmodium falciparum) [µg/mL] | IC50 (P388) [µg/mL]
4 | C[C@]12C3=CC[C@@H](c4ccoc4)[C@]3(C)CC[C@@H]1[C@@]1(C)C(=O)C=C[C@@]3(C)CO[C@@H]([C@H]2O)[C@H]13 [CERAMICINES B] | 0.23 (≈ 0.563 µM) | 15 (≈ 36.7 µM)

Reference: ChEMBL document CHEMBL1140858, “Ceramicines B-D, new antiplasmodial limonoids from Chisocheton ceramicus” (Bioorg Med Chem, 2009)
